Where two headings read alike, the source gives them in different places.
Columns and labels:
KRAS G12C = KRAS G12C (Homo sapiens, UniProt P01116+P62937, G12C); test: Disruption of BRAF RBD interaction with Ras (FRET / MOA assay, with Cyclophilin A); type: biochemical
In short: (§1)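 TR-FRET: nucleotide-loaded K-Ras mutant or WT with Cyclophilin A and BRAF RBD, compound 10-point 3-fold from 30 μM final, 3 h at 25° C, then anti-His Eu (10 nM) and anti-GST APC (50 nM) for 1.5 h. Decreased FRET ratio versus DMSO gives IC50.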

NRAS G12C = NRAS G12C (Homo sapiens, UniProt P01111+P62937, G12C); test: as above; type: biochemical
Sequence of NRAS G12C (P01111 whole entry G12C): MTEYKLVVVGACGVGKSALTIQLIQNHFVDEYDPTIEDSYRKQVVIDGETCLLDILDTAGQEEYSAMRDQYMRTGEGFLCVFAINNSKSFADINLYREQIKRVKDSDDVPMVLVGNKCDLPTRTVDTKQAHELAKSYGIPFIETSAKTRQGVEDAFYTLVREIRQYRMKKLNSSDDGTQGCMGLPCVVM
Sequence of NRAS G12C (P62937 whole entry): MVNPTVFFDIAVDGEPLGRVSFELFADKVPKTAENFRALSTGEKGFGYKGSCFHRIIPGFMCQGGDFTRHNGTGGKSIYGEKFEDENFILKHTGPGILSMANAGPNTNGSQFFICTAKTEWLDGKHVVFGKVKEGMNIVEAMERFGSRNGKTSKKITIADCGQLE

KRAS G13D = KRAS G13D (Homo sapiens, UniProt P01116+P62937, G13D); test: as above; type: biochemical
Sequence of KRAS G13D (P01116 1-169 isoform P01116-2 G13D limits assumed): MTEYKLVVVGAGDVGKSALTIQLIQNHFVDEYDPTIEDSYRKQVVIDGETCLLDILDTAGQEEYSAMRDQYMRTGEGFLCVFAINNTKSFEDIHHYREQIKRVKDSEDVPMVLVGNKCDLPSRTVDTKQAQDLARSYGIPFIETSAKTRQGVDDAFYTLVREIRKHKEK
Sequence of KRAS G13D (P62937 whole entry): as the sequence (P62937 whole entry) above
In short: as §1

KRAS G13C = KRAS G13C (Homo sapiens, UniProt P01116+P62937, G13C); test: as above; type: biochemical
Sequence of KRAS G13C (P01116 1-169 isoform P01116-2 G13C): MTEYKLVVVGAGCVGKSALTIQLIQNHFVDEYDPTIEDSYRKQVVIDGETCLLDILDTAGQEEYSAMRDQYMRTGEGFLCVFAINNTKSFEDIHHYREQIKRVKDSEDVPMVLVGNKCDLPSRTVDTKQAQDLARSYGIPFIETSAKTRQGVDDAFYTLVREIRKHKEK
Sequence of KRAS G13C (P62937 whole entry): as the sequence (P62937 whole entry) above
In short: as §1

KRAS G12D = KRAS G12D (Homo sapiens, UniProt P01116+P62937, G12D); test: as above; type: biochemical
Sequence of KRAS G12D (P01116 1-169 isoform P01116-2 G12D limits assumed): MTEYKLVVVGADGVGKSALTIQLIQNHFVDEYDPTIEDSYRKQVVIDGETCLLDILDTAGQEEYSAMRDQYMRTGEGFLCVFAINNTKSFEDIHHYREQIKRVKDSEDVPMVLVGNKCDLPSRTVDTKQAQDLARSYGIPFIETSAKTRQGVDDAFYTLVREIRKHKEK
Sequence of KRAS G12D (P62937 whole entry): as the sequence (P62937 whole entry) above
In short: as §1

KRAS G12V = KRAS G12V (Homo sapiens, UniProt P01116+P62937, G12V); test: as above; type: biochemical
Sequence of KRAS G12V (P01116 1-169 isoform P01116-2 G12V limits assumed): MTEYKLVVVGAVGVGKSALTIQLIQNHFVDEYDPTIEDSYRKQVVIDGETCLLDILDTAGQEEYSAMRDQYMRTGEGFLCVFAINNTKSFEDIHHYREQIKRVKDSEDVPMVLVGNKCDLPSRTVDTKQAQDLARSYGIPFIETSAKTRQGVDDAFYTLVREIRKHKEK
Sequence of KRAS G12V (P62937 whole entry): as the sequence (P62937 whole entry) above
In short: as §1

KRAS G12S = KRAS G12S (Homo sapiens, UniProt P01116+P62937, G12S); test: as above; type: biochemical
Sequence of KRAS G12S (P01116 1-169 isoform P01116-2 G12S limits assumed): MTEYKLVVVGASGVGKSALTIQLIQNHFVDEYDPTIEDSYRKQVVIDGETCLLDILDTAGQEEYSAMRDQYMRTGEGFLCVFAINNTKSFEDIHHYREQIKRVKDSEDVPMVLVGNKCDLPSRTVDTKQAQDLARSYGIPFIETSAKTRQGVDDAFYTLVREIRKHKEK
Sequence of KRAS G12S (P62937 whole entry): as the sequence (P62937 whole entry) above
In short: as §1

KRAS WT = KRAS WT (Homo sapiens, UniProt P01116+P62937); test: as above; type: biochemical; conditions: KRAS WT; read-out: KRAS WT FRET data IC50
Sequence of KRAS WT (P01116 1-169 isoform P01116-2 limits assumed): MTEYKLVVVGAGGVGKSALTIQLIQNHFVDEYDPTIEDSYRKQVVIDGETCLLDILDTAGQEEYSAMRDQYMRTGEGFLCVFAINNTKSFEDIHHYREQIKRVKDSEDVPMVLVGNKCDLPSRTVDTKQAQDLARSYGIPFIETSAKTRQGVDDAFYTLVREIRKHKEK
Sequence of KRAS WT (P62937 whole entry): as the sequence (P62937 whole entry) above
In short: as §1

KRAS Q61H = KRAS Q61H (Homo sapiens, UniProt P01116+P62937, Q61H); test: as above; type: biochemical; conditions: KRAS Q61H; read-out: KRAS Q61H FRET data IC50
Sequence of KRAS Q61H (P01116 1-169 isoform P01116-2 Q61H limits assumed): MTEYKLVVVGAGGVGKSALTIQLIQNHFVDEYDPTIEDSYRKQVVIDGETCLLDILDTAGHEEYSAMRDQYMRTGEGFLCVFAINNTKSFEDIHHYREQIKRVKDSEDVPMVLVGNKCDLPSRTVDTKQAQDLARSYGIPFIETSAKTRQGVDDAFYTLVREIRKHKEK
Sequence of KRAS Q61H (P62937 whole entry): as the sequence (P62937 whole entry) above
In short: (§2)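 TR-FRET in 25 mM HEPES pH 7.3, 100 mM NaCl, 5 mM MgCl2, 0.1% BSA: 25 μM Cyclophilin A, 12.5 nM His6-Ras-GMPPNP, 50 nM GST-BRAF RBD with compound (10-point 3-fold series from 30 μM), 3 h at 25° C. Anti-His Eu/anti-GST APC added, 1.5 h more; IC50 from decreased FRET ratio versus DMSO.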

NRAS WT = NRAS WT (Homo sapiens, UniProt P01111+P62937); test: as above; type: biochemical; conditions: NRAS WT; read-out: NRAS WT FRET data IC50
Sequence of NRAS WT (P01111 whole entry): as the sequence (P01111 whole entry G12C) above, with C12G counted along it
Sequence of NRAS WT (P62937 whole entry): as the sequence (P62937 whole entry) above
In short: as §2

NRAS Q61R = NRAS Q61R (Homo sapiens, UniProt P01111+P62937, Q61R); test: as above; type: biochemical; conditions: NRAS Q61R; read-out: NRAS Q61R FRET data IC50
Sequence of NRAS Q61R (P01111 whole entry Q61R): as the sequence (P01111 whole entry G12C) above, with C12G, Q61R counted along it
Sequence of NRAS Q61R (P62937 whole entry): as the sequence (P62937 whole entry) above
In short: as §2

NRAS Q61K = NRAS Q61K (Homo sapiens, UniProt P01111+P62937, Q61K); test: as above; type: biochemical; conditions: NRAS Q61K; read-out: NRAS Q61K FRET data IC50
Sequence of NRAS Q61K (P01111 whole entry Q61K): as the sequence (P01111 whole entry G12C) above, with C12G, Q61K counted along it
Sequence of NRAS Q61K (P62937 whole entry): as the sequence (P62937 whole entry) above
In short: as §2

NCI-H358 (K-Ras G12C) = test: CellTiter-Glo cell viability assay, 5-day treatment; type: cell-based; conditions: Homo sapiens
In short: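 Viability is read as luminescence on day 5 after direct compound addition to plated cells, following about 30 minutes' room-temperature equilibration. Each signal is scaled to mean DMSO as 100%.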

[1] = read-out: KRAS G12C FRET data, IC50
[2] = NRAS G12C, read-out: NRAS G12C FRET data IC50
[3] = KRAS G13D, read-out: KRAS G13D FRET data IC50
[4] = read-out: KRAS G13C FRET data, IC50
[5] = read-out: KRAS G12D FRET data, IC50
[6] = KRAS G12V, read-out: KRAS G12V FRET data IC50
[7] = read-out: KRAS G12S FRET data, IC50
[8] = KRAS G12C, read-out: KRAS G12C FRET data IC50
[9] = KRAS G13C, read-out: KRAS G13C FRET data IC50
[10] = NCI-H358, H358, K-Ras G12C, read-out: Additional H358 Cell Viability assay data (K-Ras G12C, IC50)

Sequence of KRAS G12C (P01116 1-169 isoform P01116-2 G12C): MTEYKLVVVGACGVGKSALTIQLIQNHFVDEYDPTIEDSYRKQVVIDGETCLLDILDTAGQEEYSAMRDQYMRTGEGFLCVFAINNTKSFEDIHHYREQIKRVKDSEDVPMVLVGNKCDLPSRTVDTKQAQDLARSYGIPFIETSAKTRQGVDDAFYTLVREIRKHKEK
Sequence of KRAS G12C (P62937 whole entry): as the sequence (P62937 whole entry) above

SMILES	IC50 (NRAS G12C; [2]) [nM]	IC50 (KRAS G13D; [3]) [nM]	IC50 (KRAS G12D; [5]) [nM]	IC50 (KRAS G12V; [6]) [nM]	IC50 (KRAS G12S; [7]) [nM]	IC50 (KRAS WT) [nM]	IC50 (KRAS Q61H) [nM]	IC50 (NRAS WT) [nM]	IC50 (NRAS Q61R) [nM]	IC50 (NRAS Q61K) [nM]	IC50 (KRAS G12C; [8]) [nM]	IC50 (KRAS G13C; [9]) [nM]	other results
CCn1c(-c2cccnc2[C@H](C)OC)c2c3cc(ccc31)-c1cc(O)cc(c1)C[C@H](NC(=O)[C@H](C1CCCC1)N(C)C(=O)N1CCS(=O)(=NC)CC1)C(=O)N1CCC[C@H](N1)C(=O)OCC(C)(C)C2 [Example A426]	10 to 100	10 to 100	100 to 1000	100 to 1000	100 to 1000	10 to 100	10 to 100	10 to 100	100 to 1000	100 to 1000	–	–	IC50 (KRAS G12C; [1]): 10 to 100 nM; IC50 (KRAS G13C; [4]): 10 to 100 nM
CCn1c(-c2cccnc2[C@H](C)OC)c2c3cc(ccc31)-c1cc(O)cc(c1)C[C@H](NC(=O)C(C)Cc1ccncc1)C(=O)N1CCC[C@H](N1)C(=O)OCC(C)(C)C2 (stereo partly shown) [Example A179]	–	–	–	–	–	–	100 to 1000	100 to 1000	1000 to 10000	1000 to 10000	–	–	–
CCn1c(-c2cc(N3CCN(C)CC3)cnc2[C@H](C)OC)c2c3cc(ccc31)-c1csc(n1)C[C@H](NC(C)=O)C(=O)N1CCC[C@H](N1)C(=O)OCC(C)(C)C2 (atropisomer, axis not shown) [Example A340]	> 10000	> 10000	> 10000	> 10000	> 10000	> 10000	> 10000	> 10000	> 10000	> 10000	–	–	IC50 (KRAS G12C; [1]): > 10000 nM; IC50 (KRAS G13C; [4]): > 10000 nM
C=CS(=O)(=O)N1CC[C@H](C(=O)N(C)[C@H](C(=O)N[C@H]2Cc3cccc(c3)-c3ccc4c(c3)c(c(-c3cncnc3)n4CC)CC(C)(C)COC(=O)[C@@H]3CCCN(N3)C2=O)C(C)C)C1 [Example A171]	1000 to 10000	> 10000	> 10000	> 10000	> 10000	> 10000	> 10000	–	> 10000	> 10000	1000 to 10000	1000 to 10000	IC50 (NCI-H358 (K-Ras G12C); [10]): 100 to 1000 nM
CCn1c(-c2cccnc2[C@H](C)OC)c2c3cc(ccc31)-c1csc(n1)C[C@H](NC(=O)[C@H](C(C)C)N(C)C(=O)N1CC([C@@H](C)OC)C1)C(=O)N1CCC[C@H](N1)C(=O)OCC(C)(C)C2 (atropisomer, axis not shown) [Example A278]	–	–	–	–	–	–	–	10 to 100	10 to 100	10 to 100	–	–	IC50 (NCI-H358 (K-Ras G12C); NCI-H358, 120 h, 5-day treatment, read-out: H358 Cell Viability assay data (K-Ras G12C, IC50)): < 10 nM
C=CC(=O)N1CC[C@H](C(=O)N(C)[C@H](C(=O)N[C@H]2Cc3cc(O)cc(c3)-c3ccc4c(c3)c(c(-c3cncc(COC)c3)n4CC)CC(C)(C)COC(=O)[C@@H]3CCCN(N3)C2=O)C(C)C)C1 [Example A083]	–	–	> 10000	1000 to 10000	100 to 1000	1000 to 10000	100 to 1000	–	1000 to 10000	1000 to 10000	10 to 100	1000 to 10000	–
C=CC(=O)N1CC[C@H](C(=O)N(C)[C@H](C(=O)N[C@H]2C[C@H]3CN(CCO3)c3ccc4c(c3)c(c(-c3cccnc3[C@H](C)OC)n4CC)CC(C)(C)COC(=O)[C@@H]3CCCN(N3)C2=O)C(C)C)C1 (racemic) [Example A507]	–	–	–	–	–	–	> 10000	–	> 10000	> 10000	–	–	IC50 (KRAS G12C; KRAS G12C FRET data IC50, KRAS G12C): 100 to 1000 nM; IC50 (NRAS G12C; NRAS G12C FRET data IC50, NRAS G12C): 100 to 1000 nM; IC50 (KRAS G13D; KRAS G13D FRET data IC50, KRAS G13D): > 10000 nM; IC50 (KRAS G13C; KRAS G13C FRET data IC50, KRAS G13C): 1000 to 10000 nM; IC50 (KRAS G12D; KRAS G12D FRET data, IC50): > 10000 nM; IC50 (KRAS G12V; KRAS G12V FRET data IC50, KRAS G12V): 1000 to 10000 nM; IC50 (KRAS G12S; KRAS G12S FRET data, IC50): 1000 to 10000 nM; IC50 (NCI-H358 (K-Ras G12C); [10]): 100 to 1000 nM
C=CC(=O)N1CC[C@H](C(=O)N(C)[C@H](C(=O)N[C@H]2Cc3cc(O)cc(c3)-c3ccc4c(c3)c(c(-c3nccnc3COC)n4CC)CC(C)(C)COC(=O)[C@@H]3CCCN(N3)C2=O)C(C)C)C1 [Example A085]	–	–	> 10000	> 10000	> 10000	> 10000	1000 to 10000	–	> 10000	> 10000	1000 to 10000	> 10000	–

— US20230233569A1 (Revolution Medicines, Inc., priority 2020, published 2023)
